Laboratory results taken from patent US6825230B2, “Spiro and dispiro 1,2,4-trixolane antimalarials” (Medicines for Malaria Venture MMV, priority 2002, dated 2004).

Assays:
[1] = test system: chloroquine-resistant K1 strain of P. falciparum; assay: In vitro antimalarial semiautomated microdilution assay ([3H]-hypoxanthine incorporation), K1 strain; assay type: cell-based, Plasmodium falciparum; settings: Plasmodium falciparum, K1, 72 h, read-out: IC50 (ng/ml) K1, chloroquine-resistant K1 strain, 72 h incubation
In short: (§1)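 Logit regression analysis yields the fifty percent inhibitory concentration. Compounds are tested by semiautomated microdilution on intraerythrocytic parasites drawn from asynchronous stock cultures, measuring [3H]-hypoxanthine incorporation.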

[2] = test system: chloroquine-sensitive NF54 strain of P. falciparum; assay: In vitro antimalarial semiautomated microdilution assay ([3H]-hypoxanthine incorporation), NF54 strain; assay type: cell-based, Plasmodium falciparum; settings: Plasmodium falciparum, NF54, 72 h, read-out: IC50 (ng/ml) NF54, chloroquine-sensitive NF54 strain, 72 h incubation
In short: as §1

[3] = test system: ANKA strain of P. berghei; assay: Single dose STI in vivo screen in infected mice; set-up: species or system Plasmodium berghei
[4] = test system: P. berghei ANKA strain; assay: Onset of action and recrudescence experiment, single 100 mg/kg po; assay type: in vivo, Plasmodium berghei; settings: single 100 mg/kg po (SSV) on day +3 post-infection; recrudescence = >5% parasitemia; followed up to 60 days; groups of five
Experimental: The onset of drug action was determined after a single fixed dose of 100 mg/kg (SSV vehicle) po to groups of five animals on day +3 post-infection (day 0).
Moro NMRI male mice (Fu Albino specific pathogen free) weighing 18±2 g were infected intravenously (i.v.) with 2×10^7 P. berghei ANKA strain-infected erythrocytes from donor mice on day 0 of the experiment. From donor mice with circa 30% parasitemia, heparinized blood was taken and diluted in physiological saline to 10^8 parasitized erythrocytes per ml. An aliquot (0.2 ml) of this suspension was injected i.v. into experimental and control groups of mice. […] Throughout the experiments, mice were kept in groups of three or five animals in Makrolon type II cages in an air-conditioned animal room at 22 to 23° C.

[5] = test system: Schistosoma japonicum; assay: Effect in mice infected with Schistosoma japonicum; assay type: in vivo; settings: for MFWB (mean female worm burden) x ± SD: control 11.6 ± 2.4; for MTWB (mean total worm burden) x ± SD: control 26.6 ± 4.2
[6] = test system: Schistosoma mansoni 21-day-old schistosomules; assay: Effect on 21-day-old schistosomules in infected mice; assay type: in vivo; settings: single 200 mg/kg per os, 21-day-old schistosomules
Experimental: Mice were infected with 100 Schistosoma mansoni cercariae on day 21 post-treatment. Each group was treated per os with trioxolanes at a single dose of 200 mg/kg. […] All groups were killed 4 weeks after treatment and the liver and intestine were removed and separated. The liver and intestine were compressed and alive male and female worms could be seen and counted. The effect of the compounds was evaluated by mean total and female worm burden.

[7] = test system: Schistosoma mansoni adult worms (49-day-old); assay: Effect on adult schistosomes (49-day-old) in infected mice; assay type: in vivo
Experimental: Mice were infected with 100 Schistosoma mansoni cercariae on day 49 post-treatment. Each group was treated per os with OZ compounds at single doses of 200, 400, and 600 mg/kg. Untreated mice served as the control. All groups were killed 4 weeks after treatment and the liver and intestine were removed and separated. The liver and intestine were compressed and alive male and female worms could be seen and counted.

[8] = test system: S. haematobium; assay: In vivo activity against S. haematobium; set-up: species or system Schistosoma haematobium; settings: 1 x 200 mg/kg p.o.
[9] = test system: ANKA strain of Plasmodium berghei; assay: Single dose ED50/ED90/ED99 determination in infected mice; assay type: in vivo; settings: single dose po in SSV on day 1 post-infection, parasitemia day 3, nonlinear fitting
In short: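 Moro SPF or NMRI mice (three per group) infected with P. berghei ANKA were dosed once on day 1 post-infection in SSV (0.5% CMC, 0.5% benzyl alcohol, 0.4% Tween 80, 0.9% NaCl). Parasitemia reduction was scored on day 3; ED values (mg/kg) came from nonlinear fitting.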

[10] = Differential scanning calorimetry (DSC) thermal stability; assay type: physicochemical; settings: thermal decomposition
[11] = 1 x 200 mg/kg p.o. (table footnote)
[12] = 1 x 400 mg/kg p.o. (table footnote)
[13] = age of worm 7 days, 200 mg/kg x 1
[14] = age of worm 35 days, 200 mg/kg x 1
[15] = age of worm 35 days, 400 mg/kg x 1

Cc1ccc(S(=O)(=O)O)cc1.NC[C@H]1CC[C@]2(CC1)OOC1(O2)C2CC3CC(C2)CC1C3 (stereo partly shown) [OZ207]
IC50 [1]: 0.33 ng/mL
IC50 [2]: 0.57 ng/mL
Survival (days) 10 mg/kg po ([3]; single 10 mg/kg po in 3% ethanol and 7% Tween 80, untreated 6-7 days): 9.3 days
Activity (%) 10 mg/kg po ([3]; single 10 mg/kg po in 3% ethanol and 7% Tween 80 on day 1 post-infection, percent reduction in parasitemia on day 3): 99.96%
Survival (days) 10 mg/kg SSV po ([3]; single 10 mg/kg po in SSV, untreated 6-7 days): 12.0 days
Activity (%) 10 mg/kg SSV po ([3]; single 10 mg/kg po in standard suspending vehicle (SSV) on day 1 post-infection, percent reduction in parasitemia on day 3): 99.98%
Survival (days) 10 mg/kg sc ([3]; single 10 mg/kg sc in 3% ethanol and 7% Tween 80, untreated 6-7 days): 11.3 days
Activity (%) 10 mg/kg sc ([3]; single 10 mg/kg sc in 3% ethanol and 7% Tween 80 on day 1 post-infection, percent reduction in parasitemia on day 3): 99.98%
Time of Recrudescence (days) [4]: no recrudescence observed
S. Japonicum FWR [5, 11]: 95%
S. Japonicum TWR [5, 11]: 66%
S. Japonicum FWR [5, 12]: 94%
S. Japonicum TWR [5, 12]: 84%
Mice without female worm [5, 13]: 0/8
MFWB (mean female worm burden) x ± SD [5, 13]: 2.1 ± 1.0
MTWB (mean total worm burden) x ± SD [5, 13]: 5.4 ± 2.4
Mice without female worm [5, 14]: 4/7
MFWB (mean female worm burden) x ± SD [5, 14]: 0.6 ± 0.7
MTWB (mean total worm burden) x ± SD [5, 14]: 9.1 ± 3.9
Mice without female worm [5, 15]: 4/6
MFWB (mean female worm burden) x ± SD [5, 15]: 0.7 ± 1.2
MTWB (mean total worm burden) x ± SD [5, 15]: 4.3 ± 1.2
% reduction of schistosomule growth at day 21 after per os application of 200 mg/kg, FWR (%) ([6]; female worm reduction rate): 100%
% reduction of schistosomule growth at day 21 after per os application of 200 mg/kg, TWR (%) ([6]; total worm reduction rate): 93%
% reduction of adult worms growth at day 49 after per os application of 200 mg/kg, TWR (%) ([7]; single 200 mg/kg per os, 49-day-old adults, total worm reduction rate): 32%
Adult worms day 49, per os 200 mg/kg, DEAD WORM (%) ([7]; single 200 mg/kg per os, percentage of dead worm in the liver): 17%
% reduction of adult worms growth at day 49 after per os application of 400 mg/kg, TWR (%) ([7]; single 400 mg/kg per os, 49-day-old adults, total worm reduction rate): 35%
Adult worms day 49, per os 400 mg/kg, DEAD WORM (%) ([7]; single 400 mg/kg per os, percentage of dead worm in the liver): 21%
% reduction of adult worms growth at day 49 after per os application of 600 mg/kg, TWR (%) ([7]; single 600 mg/kg per os, 49-day-old adults, total worm reduction rate): 11/ %
Adult worms day 49, per os 600 mg/kg, DEAD WORM (%) ([7]; single 600 mg/kg per os, percentage of dead worm in the liver): 24++ %
S. haematobium DEAD WORM [8]: 68%
S. haematobium TWR [8]: 73%
ED50 ([9]; Plasmodium berghei, po): 0.37 mg/kg
ED90 [9]: 1.2 mg/kg
ED99 [9]: 3.0 mg/kg

C[C@@H]1CC[C@H]2[C@@H](C)C(=O)O[C@@H]3O[C@@]4(C)CC[C@@H]1[C@]32OO4 [Artemisinin, artemisinin, reference compound]
Time of Recrudescence [4]: 8.4 days
Tm, dec (DSC) [10]: 181 °C
